Experimental data from patent US20210220384A1, “ORAL ADMINISTRABLE PHARMACEUTICAL COMPOSITION” (TAIHO PHARMACEUTICAL CO., LTD., priority 2012, published 2021).

Assay: Critical relative humidity of additives by moisture sorption analyzer (Test Example 1)
Assay type: physicochemical
Settings: of the additive (excipient) alone, moisture sorption analyzer DVS-1
Description: The orally administrable pharmaceutical composition of the present invention, to which sugars having a critical relative humidity of 85% or more at 25° C. as an excipient is added, suppresses increases in FTD and TPI related substances even stored under high-humidity conditions. A “critical relative humidity” herein means a well-known indicator representing the hygroscopicity, and refers to a relative humidity when a rapid increase in the amount of moisture absorbed in a sample is observed in the case where the relative humidity is increased. The critical relative humidity can be checked by measuring the change in the weight of a sample at 25° C. and a relative humidity of from 10 to 95% using, for example, a moisture sorption analyzer (DVS-1, Surface Measurement Systems Ltd.). “A critical relative humidity at 25° C. is 85% or more” means that moisture is not substantially absorbed when the relative humidity at 25° C. is less than 85%. Also, “no critical relative humidity” means that moisture is absorbed at a low humidity depending on the humidity, and a rapid increase in the amount of moisture absorbed associated with an increase in the relative humidity is not observed.
The critical relative humidity of additives at 25° C. shown in Tables 1 and 2 was measured using a moisture sorption analyzer (DVS-1, Surface Measurement Systems Ltd.).

## OC[C@@H](O)[C@@H](O)[C@H](O)[C@@H](O)CO [D-sorbitol]
  Critical relative humidity (%, at 25° C.): 50-60%

## O.OC[C@H]1O[C@@H](O[C@H]2[C@H](O)[C@@H](O)C(O)O[C@@H]2CO)[C@H](O)[C@@H](O)[C@H]1O (some centres unmarked) [Lactose hydrate, lactose hydrate]
  Critical relative humidity (%, at 25° C.): 95 or more %

## OC[C@H]1O[C@@](CO)(O[C@H]2O[C@H](CO)[C@@H](O)[C@H](O)[C@H]2O)[C@@H](O)[C@@H]1O [Sucrose, sucrose]
  Critical relative humidity (%, at 25° C.): 85 or more %

## OC[C@@H](O)[C@H](O)[C@@H](O)CO [Xylitol, xylitol]
  Critical relative humidity (%, at 25° C.): 75-85%

## OC[C@@H](O)[C@@H](O)[C@H](O)[C@H](O)CO [D-mannitol]
  Critical relative humidity (%, at 25° C.): 95 or more %
